Data: patent publication US20110190122A1, “Triazole and Imidazole Compounds, Use Thereof and Agents Containing Them” (BASF SE, priority 2008, published 2011)

How the values were obtained:
Phakopsora pachyrhizi [1] = test: Curative activity against soybean rust caused by Phakopsora pachyrhizi (Example G1, sprayed two days after incubation); format: in vivo; conditions: soybean seedlings, 300 ppm aqueous active compound preparation, sprayed to runoff two days after 24 h incubation, assessed after a further 10 days; untreated plants 90% infected
Procedure: (§1) The active compounds were prepared separately or together as a stock solution with 25 mg of active compound, which was made up to 10 ml with a mixture of acetone and/or DMSO and the emulsifier Uniperol® EL (wetting agent with emulsifying and dispersant action based on ethoxylated alkylphenols) in the volume ratio solvent/emulsifier of 99 to 1. Subsequently, it was made up to 100 ml with water. This stock solution was diluted with the described solvent/emulsifier/water mixture to the active compound concentration indicated below. Alternatively to this, the active compounds were used as a commercially available ready-to-use solution and diluted with water to the active compound concentration indicated.
Leaves of soybean seedlings grown in pots were inoculated with a spore suspension of soybean rust (Phakopsora pachyrhizi). The pots were then placed in a chamber of high atmospheric humidity (90 to 95%) and 23 to 27° C. for 24 hours. During this time, the spores germinated and the germ tubes penetrated into the leaf tissue. The infected plants were then cultivated further in a greenhouse at temperatures between 23 and 27° C. and 60 to 80% relative atmospheric humidity. After two days, the plants were sprayed to runoff point with the active compound solution described above at the active compound concentration indicated below. After the spray coating had dried on, the test plants were cultivated in a greenhouse at temperatures between 23 and 27° C. and 60 to 80% relative atmospheric humidity for a further 10 days. The extent of the rust fungus development on the leaves was then determined visually in % infections.

Phakopsora pachyrhizi [2] = test: Curative activity against soybean rust caused by Phakopsora pachyrhizi (Example G2, sprayed directly after 24 h incubation); format: in vivo; conditions: soybean seedlings, 300 ppm aqueous active compound preparation, sprayed to runoff after 24 h incubation, assessed after a further 14 days; untreated plants 90% infected
Procedure: as §1
Leaves of soybean seedlings grown in pots were inoculated with a spore suspension of soybean rust (Phakopsora pachyrhizi). The pots were then placed in a chamber of high atmospheric humidity (90 to 95%) and 23 to 27° C. for 24 hours. During this time, the spores germinated and the germ tubes penetrated into the leaf tissue. The infected plants were then sprayed to runoff point with the active compound solution described above at the active compound concentration indicated below. […] The extent of the rust fungus development on the leaves was then determined visually in % infections.

| Compound | infection (extent of the rust fungus development on the leaves, determined visually) (Phakopsora pachyrhizi [1]) | infection (extent of the rust fungus development on the leaves, determined visually) (Phakopsora pachyrhizi [2]) |
| --- | --- | --- |
| CC(C)[C@H](O)[C@@H](CCCCOc1cc(F)ccc1F)n1nc[nH]c1=S (racemic) [I.A4, (RS,SR)-2-[5-(2,5-difluorophenoxy)-1-(1-hydroxy-2-methylpropyl)pentyl]-2,4-dihydro[1,2,4]triazole-3-thione] | 0% |  |
| CC(C)[C@H](O)[C@@H](CCCCOc1cccc(Cl)c1Cl)n1nc[nH]c1=S (racemic) [I.A2, (RS,SR)-2-[5-(2,3-dichlorophenoxy)-1-(1-hydroxy-2-methylpropyl)pentyl]-2,4-dihydro[1,2,4]triazole-3-thione] | 0% |  |
| CC(C)[C@H](O)[C@@H](CCCCOc1ccc(Cl)cc1Cl)n1nc[nH]c1=S (racemic) [I.A3, (RS,SR)-2-[5-(2,4-dichlorophenoxy)-1-(1-hydroxy-2-methylpropyl)pentyl]-2,4-dihydro[1,2,4]triazole-3-thione] | 0% |  |
| CC(C)[C@H](O)[C@@H](CCCCOc1cccc(F)c1F)n1nc[nH]c1=S (racemic) [I.A1, (RS,SR)-2-[5-(2,3-difluorophenoxy)-1-(1-hydroxy-2-methylpropyl)pentyl]-2,4-dihydro[1,2,4]triazole-3-thione] |  | 0% |
